From PMC6471485, “Selective Inhibitors of a Human Prolyl Hydroxylase (OGFOD1) Involved in Ribosomal Decoding” (Chemistry (Weinheim an Der Bergstrasse, Germany), 2019)

Target: T1, OGFOD1 (Homo sapiens, UniProt Q8N543)
T1 sequence (Q8N543 1-542): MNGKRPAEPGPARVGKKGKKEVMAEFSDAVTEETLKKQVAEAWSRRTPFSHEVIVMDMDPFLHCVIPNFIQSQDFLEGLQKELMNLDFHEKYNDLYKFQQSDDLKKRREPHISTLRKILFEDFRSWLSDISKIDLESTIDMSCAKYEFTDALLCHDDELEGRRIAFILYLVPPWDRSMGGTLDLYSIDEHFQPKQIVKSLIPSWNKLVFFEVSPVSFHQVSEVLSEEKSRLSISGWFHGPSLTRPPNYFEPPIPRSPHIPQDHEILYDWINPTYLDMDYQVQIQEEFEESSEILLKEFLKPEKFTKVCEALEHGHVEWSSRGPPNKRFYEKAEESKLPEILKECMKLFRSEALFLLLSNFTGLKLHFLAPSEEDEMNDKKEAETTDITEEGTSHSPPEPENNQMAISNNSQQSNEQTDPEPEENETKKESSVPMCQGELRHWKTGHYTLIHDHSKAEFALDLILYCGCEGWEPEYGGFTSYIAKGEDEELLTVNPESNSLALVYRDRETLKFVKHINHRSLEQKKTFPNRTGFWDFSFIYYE
Assay: OGFOD1 inhibition assay: hydroxylation of RPS23 51-70 peptide by MALDI-TOF MS
Assay type: biochemical
Settings: IC50 against OGFOD1, 1 μM OGFOD1; minimum measurable IC50 0.5 μM; values for 24 and 25 regarded as preliminary
Protocol: (§1) OGFOD1 inhibition assays were performed by determining the extent of hydroxylation of a 20mer fragment of human ribosomal protein S23 (RPS23) containing residues 51-70 (H2N- […]
(§2) -CONH2) by matrix-assisted laser desorption/ionization time-of-flight mass spectrometry (MALDI-TOF MS) using a Waters Micromass MALDI micro MX mass spectrometer and MassLynx 4.1, as previously described.[7,8] The optimized hydroxylation assay involved incubation of OGFOD1 (1 µM) with inhibitor (1 % v/v in DMSO) in the presence of (NH4)2Fe(SO4)2 (50 µM), the disodium salt of 2-oxoglutarate (25 µM), […]
OGFOD1 was pre-incubated with inhibitor for 5 min before initiation of the reaction via the addition of the other reagents. Reactions were quenched with formic acid (1 % v/v) after 15 min. Samples were prepared for MALDI using α-cyano-4-hydrocinnamic acid (CHCA; prepared in 50 % acetonitrile) as a matrix. Dose-responses were assessed in 8-point triplicates, normalized to a no enzyme negative control and a no inhibitor positive control. Non-linear regression analysis was performed using Prism (GraphPad). […]

Compound | IC50 [µM]
Cn1c(O)c(C(=O)c2ccccc2)c(=O)n(C)c1=O [compound 24] | 30
Cn1c(O)c(C(=O)Cc2ccccc2)c(=O)n(C)c1=O [compound 25] | 2

Same assay, conditions: OGFOD1 1 μM (Figure 3B)

Compound | OGFOD1 inhibition in fragment-based screening, in words
CCOC(=O)CC(=O)OCC [compound 10, diethyl malonate] | poor inhibitors
CC(=O)c1c(O)[nH]c(=O)[nH]c1=O [compound 18] | improved potency
CC(=O)c1c(O)cccc1O [compound 16, 2′,6′‐dihydroxyacetophenone] | relatively poor OGFOD1 inhibitor
CC(=O)c1c(O)[nH]c(=S)[nH]c1=O [compound 19] | did not substantially increase the potency
CC(=O)C1CCCCC1=O (stereo not drawn) [compound 11, 2‐acetylcyclohexanone] | poor inhibitors
CC(=O)c1c(O)n(C)c(=O)n(C)c1=O [compound 20] | improved potency

Same assay, conditions: OGFOD1 1 µM; inhibitors at 100, 20, 5, 1 µM (Figure S9) or 5 and 1 µM (Figure S10)

Compound | relative potency of OGFOD1 inhibition in barbiturate SAR, in words
Cn1c(O)c(C(=O)CCCc2ccccc2)c(=O)n(C)c1=O [compound 27] | did not provide a substantial increase in potency
O=C(CCC1CCCC1)c1c(O)n(C2CCCCC2)c(=O)n(C2CCCCC2)c1=O [compound 31] | less potent than 29
Cn1c(O)c(C(=O)CCCCc2ccccc2)c(=O)n(C)c1=O [compound 28] | did not provide a substantial increase in potency
CCn1c(O)c(C(=O)CCC2CCCC2)c(=O)n(CC)c1=O [compound 30] | less potent than 29
Cn1c(O)c(C(=O)NCc2ccccc2)c(=O)n(C)c1=O [compound 46] | had little effect

Same assay, conditions: OGFOD1 and PHD2 1 µM each; 23 at 100 µM (Figure 4; Figure S6)

Compound | selectivity for OGFOD1 over PHD2, in words
CCOC(=O)CNC(=O)c1c(O)[nH]c(=O)[nH]c1=O [compound 22] | did not manifest clear selectivity for OGFOD1 over PHD2
CCOC(=O)CNC(=O)c1c(O)n(C)c(=O)n(C)c1=O [compound 23] | did not manifest clear selectivity for OGFOD1 over PHD2

Same assay, conditions: inhibitor 100 µM, OGFOD1 1 µM (Figures S1, S2)

Compound | inhibition of OGFOD1 hydroxylation activity, in words
trinexapac‐ethyl [compound 5, reference compound] | inhibition of OGFOD1
O=C(O)CNC(=O)c1c(O)c2ccccc2n(Cc2ccccc2)c1=O [compound 9, reference compound] | inhibited OGFOD1
Cc1nc(C(=O)NCC(=O)O)c(O)c2ccc(Oc3ccccc3)cc12 [compound 8, reference compound] | inhibited OGFOD1
CCC(O)=C1C(=O)CC(C(=O)O)CC1=O (stereo not drawn) [compound 4, prohexadione‐calcium, reference compound] | inhibition of OGFOD1
O=C(O)CNC(=O)c1nc(Cl)c2ccccc2c1O [compound 7, reference compound] | inhibited OGFOD1
O=C1CCCC(=O)C1C(=O)c1ccc(C(F)(F)F)cc1[N+](=O)[O-] [compound 1, nitisinone, reference compound] | is an OGFOD1 inhibitor

Target: T2, PHD2181-426 (Homo sapiens, UniProt Q9GZT9)
T2 construct: 181-426 (1 µM) was
Assay: PHD2 inhibition assay: hydroxylation of HIF-1a CODD peptide by MALDI-TOF MS
Assay type: biochemical
Settings: inhibitor 100 µM, PHD2181-426 1 µM (Figures S2, S8)
Protocol: as §1, §2
OGFOD1 was pre-incubated with inhibitor for 5 min before initiation of the reaction via the addition of the other reagents. Reactions were quenched with formic acid (1 % v/v) after 15 min. Samples were prepared for MALDI using α-cyano-4-hydrocinnamic acid (CHCA; prepared in 50 % acetonitrile) as a matrix. Dose-responses were assessed in 8-point triplicates, normalized to a no enzyme negative control and a no inhibitor positive control. Non-linear regression analysis was performed using Prism (GraphPad).
PHD2181-426 inhibition assays were performed by determining the extent of hydroxylation of a HIF-1a CODD peptide substrate (HIF-1a residues 556-574), using MALDI-TOF MS as described with OGFOD1.[8] The optimized hydroxylation assay involved incubation of PHD2181-426 (1 µM) with inhibitor (1 % v/v in DMSO) in the presence of (NH4)2Fe(SO4)2 (10 µM), the disodium salt of 2-oxoglutarate (60 µM), sodium ascorbate (100 µM), and HIF-1aCODD 556-574 (50 µM) in HEPES (50 mM, pH 7.5) at 37 °C for 15 min. The FIH assay employed MALDI-TOF MS detection of hydroxylation. Reactions consisted of FIH […]
(50 nM), ankyrin peptide (50 µM; […]), the disodium salt of 2- […]
oxoglutarate (100 µM), sodium ascorbate (100 µM), and (NH4)2Fe(SO4)2 (10 µM), and […]

T2 sequence (Q9GZT9 181-426 limits assumed): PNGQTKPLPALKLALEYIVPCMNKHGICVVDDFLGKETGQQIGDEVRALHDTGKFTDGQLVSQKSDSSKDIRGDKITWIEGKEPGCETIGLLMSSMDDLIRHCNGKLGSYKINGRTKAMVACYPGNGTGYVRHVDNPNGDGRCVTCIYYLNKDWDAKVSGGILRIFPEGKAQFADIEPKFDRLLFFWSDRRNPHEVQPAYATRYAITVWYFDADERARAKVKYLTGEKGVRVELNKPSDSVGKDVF

Compound | inhibition of PHD2 hydroxylation activity, in words
Cn1c(O)c(C(=O)c2ccccc2)c(=O)n(C)c1=O [compound 24] | Lack of inhibition
Cn1c(O)c(C(=O)Cc2ccccc2)c(=O)n(C)c1=O [compound 25] | Lack of inhibition

System: PHD enzymes in HeLa cells
Assay: HIFα Western blot in HeLa cells (activity of PHD enzymes in cells)
Assay type: cell-based, human
Settings: HeLa cells treated 5 h, anti-HIF-1α Western blot
Protocol: supplemented with 80 µM Zn(II), 70 µM of inhibitor, all in 50 mM Tris-d11, pH 7.5, 10 % D2O, […]
Cell Culture and Immunoblotting
HeLa cells were cultured in DMEM media supplemented with 10 % fetal bovine serum, 4 mM L-glutamine, 100 U/mL penicillin, and 100 µg/mL streptomycin. Cells were treated with the indicated compounds, prepared in 1% DMSO, for 5 h. Following a PBS buffer rinse, cells were lysed in urea/SDS buffer supplemented with 1 mM dithiothreitol. Cell extracts were analyzed by SDS-PAGE, electroblotted onto PVDF membranes (Millipore) and probed with anti-HIF-1α antibody (clone 54, BD Transduction Laboratories) at 1:1000 dilution for 1 h at room temperature. The HRP-conjugated secondary antibody was then applied at room temperature for 1 h. Target proteins were detected with SuperSignal Chemiluminescent […]
ADMET in vitro Predictors
S9 liver microsome stability assays and MDCK-MDR1 efflux assays were carried out for CCT3 and CCT4 by Cyprotex (UK). Additional details are provided later in the Supporting

Compound | HIFα stabilization in HeLa cells, in words
CC(C)(C)OC(=O)c1ccc(-n2[nH]cc(-n3ccnn3)c2=O)nc1 [IOX4, reference compound] | inhibits the hydroxylation of HIFα, preventing proteasomal degradation

System: not given
Assay: not given
Settings: not given

Compound | melting point [°C]
Cn1c(O)c(C(=O)[C@H]2C[C@H]2c2ccccc2)c(=O)n(C)c1=O | 111
Cc1ccc(CCC(=O)c2c(O)n(C)c(=O)n(C)c2=O)cc1 | 140
Cn1c(O)c(C(=O)C2Cc3ccccc3C2)c(=O)n(C)c1=O | 120
Cc1cccc(CCC(=O)c2c(O)n(C)c(=O)n(C)c2=O)c1 | 131
CC(CC(=O)c1c(O)n(C)c(=O)n(C)c1=O)c1ccccc1 (stereo not drawn) | 100
Cn1c(O)c(C(=O)CCC2CCCCC2)c(=O)n(C)c1=O | 58
